Assay results from article PMC6720825, “Thiol-ene "Click" Synthesis and Pharmacological Evaluation of C-Glycoside sp^2-Iminosugar Glycolipids” (Molecules, 2019).
Entries after “also recorded” stand apart in the source; their conditions may differ.

Experiments:
[1] = tested on: intracellular amastigotes of Leishmania donovani MHOM/ET/67/HU3 line; experiment: Susceptibility of intracellular Leishmania amastigotes (luciferase assay); type: cell-based; conditions: L. donovani in THP-1 macrophages, 72 h at 37 °C, threshold 20 μM
Experimental: The leishmanicidal activity of all the synthesized sp^2-iminosugar C-glycosides (1–12) was evaluated against intracellular amastigotes of Leishmania donovani MHOM/ET/67/HU3 line with luciferase gene integrated into the parasite genome. […] A strong influence of the nature of the lipid chain α-linked to the pseudoanomeric position of the bicyclic core in the sp^2-IGLs was inferred from the corresponding data. […] The longer-chain sp^2-IGLs 2 and 8 were over the 20 μM concentration threshold in this assay. In the sulfone series, the results evidenced some disparity between the ONJ and OGJ epimers.
Macrophage-differentiated THP-1 cells, which are considered a suitable model for human macrophages, were plated at a density of 3 × 10^4 or 3 × 10^5 macrophages/well in 96-well white polystyrene microplates or 24-well tissue culture chamber slides, respectively, and were infected at a macrophage/parasite ratio of 1:10 with L. donovani promastigotes. Twenty-four hours after infection at 35 °C and 5% CO2, extracellular parasites were removed by washing with serum-free medium. Infected cell cultures were then incubated at different compound concentrations in RPMI 1640 medium plus 10% iFBS at 37 °C with 5% CO2 for 72 h. To determine the susceptibility of L. donovani LUC amastigotes, infected macrophages maintained in 96-well plates were lysed and then luminescence intensity was measured as indicative of the intracellular parasite growth, using the Luciferase Assay System Kit (Promega, Madison, Wis.) according to the instructions of the supplier. To determine the susceptibility of L. donovani HU3 amastigotes, infected macrophages maintained in 24-well plates were fixed for 30 min at 4 °C with 2.5% paraformaldehyde phosphate-buffered saline (PBS; 1.2 mM KH2PO4, 8.1 mM Na2HPO4, 130 mM NaCl, and 2.6 mM KCl adjusted to pH 7) and permeabilized with 0.1% Triton X-100 in PBS for 30 min. Intracellular parasites and macrophages were detected by nuclear staining with ProLong® Gold antifade reagent plus DAPI (Invitrogen). The percentage infection and mean number of amastigotes from infected macrophages were determined with 200 macrophages/well.

[2] = tested on: human lung fibroblast MRC-5 cells; experiment: Cellular toxicity (MTT assay) in MRC-5 cells; type: cell-based; conditions: for EC50: Homo sapiens, MRC5, MTT assay, 72 h at 37 °C; for SI (EC50 MRC-5/EC50 parasite): Selectivity Index
[3] = target: T1, α-Glcase (Yeast Maltase) (Saccharomyces cerevisiae, UniProt P53341); experiment: Glycosidase inhibition (Ki), yeast maltase α-glucosidase; type: biochemical; conditions: for Ki, α-Glcase (Yeast Maltase): mean ± SD, three independent determinations, competitive inhibition
T1 construct: purchased
T1 sequence (P53341 whole entry): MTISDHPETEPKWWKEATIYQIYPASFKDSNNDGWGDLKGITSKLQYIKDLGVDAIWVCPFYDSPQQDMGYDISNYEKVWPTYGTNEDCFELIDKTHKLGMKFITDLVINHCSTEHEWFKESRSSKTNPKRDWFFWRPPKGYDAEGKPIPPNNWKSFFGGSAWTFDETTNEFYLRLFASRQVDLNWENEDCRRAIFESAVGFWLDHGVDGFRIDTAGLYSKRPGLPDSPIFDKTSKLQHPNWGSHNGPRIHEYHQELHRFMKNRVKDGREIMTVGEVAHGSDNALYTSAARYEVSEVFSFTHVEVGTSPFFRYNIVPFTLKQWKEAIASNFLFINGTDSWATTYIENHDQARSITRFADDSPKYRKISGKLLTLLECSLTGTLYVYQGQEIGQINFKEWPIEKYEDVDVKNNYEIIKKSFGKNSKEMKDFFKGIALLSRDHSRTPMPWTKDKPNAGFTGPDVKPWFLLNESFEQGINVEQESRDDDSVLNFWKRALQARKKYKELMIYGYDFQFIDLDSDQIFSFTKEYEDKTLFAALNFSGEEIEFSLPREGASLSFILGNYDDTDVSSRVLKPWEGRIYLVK
From the text: (§1) The inhibitory properties of the new sp^2-IGLs 1–12 and the α-C-allyl ONJ and OGJ glycosides 15, and 24 were examined against a panel of commercial glycosidases that included the α-glucosidases maltase (Saccharomyces cerevisiae) and amyloglucosidase (Aspergillus niger), the β-glucosidases from almonds and bovine liver, α-galactosidase from green coffee beans, β-galactosidase from Escherichia coli, α-mannosidase from Jack beans, and β-mannosidase from Helix pomatia. The corresponding inhibition constant (Ki) values are collected in Table 1.
(§2) Inhibition constant (Ki) values were determined by spectrophotometrically measuring the residual hydrolytic activities of the glycosidases against the respective o- (for β-galactosidase from E. coli) or p-nitrophenyl α- or β-D-glycopyranoside (for other glycosidases) in the presence of the iminosugars. Each assay was performed in phosphate buffer or phosphate-citrate buffer (for α- or β-mannosidase and amyloglucosidase) at the optimal pH for the enzymes. The reactions were initiated by addition of the enzyme to a solution of the substrate in the absence or presence of various inhibitor concentrations. The mixture was incubated for 10–30 min at 37 °C or 55 °C (for amyloglucosidase) and the reaction was quenched by addition of 1 M Na2CO3. Reaction times were appropriate to obtain 10–20% conversion of the substrate in order to achieve linear rates. The absorbance of the resulting mixture was determined at 405 nm. Approximate value of Ki was determined from the slope of Dixon plots using a fixed concentration of substrate (around the Km value for the different glycosidases) and various concentrations of inhibitor. Full Ki determinations and enzyme inhibition mode were determined from the slope of Lineweaver–Burk plots and double reciprocal analysis. Representative examples of Dixon and Lineweaver–Burk plots are shown in the Supplementary materials.

[4] = tested on: human solid tumor cell lines A549, SW1573 (lung), HBL-100, T-47D (breast), HeLa (cervix), WiDr (colon); experiment: Antiproliferative activity (SRB assay) against a panel of six human solid tumor cell lines; type: cell-based; conditions: for GI50: read-out: GI50 (concentration to achieve 50% growth inhibition), 48 h, tested 1 to 100 μM, only values below 100 μM significant
Experimental: The antiproliferative activity of all the sp^2-iminosugar C-glycosides (1–12) was evaluated against a panel of six representative human solid tumor cell lines including lung (A549 and SW1573), breast (HBL-100, T-47D), cervix (HeLa), and colon (WiDr).
All reagents were used as purchased from commercial suppliers without further purification. The human solid tumor cell lines A549 (lung), HBL-100 (breast), HeLa (cervix), SW1573 (lung), T-47D (breast), and WiDr (colon) were used in this study. These cell lines were a kind gift from Prof. G. J. Peters (VU Medical Center, Amsterdam, The Netherlands).
Cells were inoculated onto 96-well microtiter plates in a volume of 100 μL per well at densities of 2500 (A549, HBL-100, HeLa, and SW1573) and 5000 (T-47D and WiDr) cells per well, based on their doubling times. Compounds were initially dissolved in DMSO at 400 times the desired final maximum test concentration. Control cells were exposed to an equivalent concentration of DMSO (0.25% v/v, negative control). Each agent was tested in triplicate at different dilutions in the range of 1 to 100 μM. The drug treatment started on day 1 after plating. Drug incubation times were 48 h, after which cells were precipitated with 25 μL ice-cold TCA (50% w/v) and fixed for 60 min at 4 °C. Then the SRB assay was performed. The optical density (OD) of each well was measured at 530 nm, using BioTek’s PowerWave XS Absorbance Microplate Reader. Values were corrected for background OD from wells only containing medium. The antiproliferative activity for each compound, expressed as GI50 values, was calculated according to NCI formulas.

[5] = tested on: THP-1 cells; experiment: Cellular toxicity (MTT assay) in THP-1 cells; type: cell-based, human; conditions: for EC50: Homo sapiens, THP-1, MTT assay, 72 h at 37 °C
Experimental: Human myelomonocytic cell line THP-1 was grown at 37 °C and 5% CO2 in RPMI-1640 supplemented with 10% iFBS, 2 mM […], 100 U/mL penicillin, and 100 μg/mL streptomycin; 3 × 10^4 cells/well in 96-well plates were differentiated to macrophages with 20 ng/mL of PMA treatment for 48 h followed by 24 h of culture in fresh medium. Cellular toxicity of all compounds was determined using the colorimetric MTT-based assay after incubation at 37 °C for 72 h in the presence of increasing concentrations of compounds [71].

[6] = target: T2, β-Glcase (Bovine Liver) (Bos taurus, UniProt F1MNT6); experiment: Glycosidase inhibition (Ki), bovine liver β-glucosidase; type: biochemical; conditions: mean ± SD, three independent determinations; competitive inhibition
T2 sequence (F1MNT6 1-469): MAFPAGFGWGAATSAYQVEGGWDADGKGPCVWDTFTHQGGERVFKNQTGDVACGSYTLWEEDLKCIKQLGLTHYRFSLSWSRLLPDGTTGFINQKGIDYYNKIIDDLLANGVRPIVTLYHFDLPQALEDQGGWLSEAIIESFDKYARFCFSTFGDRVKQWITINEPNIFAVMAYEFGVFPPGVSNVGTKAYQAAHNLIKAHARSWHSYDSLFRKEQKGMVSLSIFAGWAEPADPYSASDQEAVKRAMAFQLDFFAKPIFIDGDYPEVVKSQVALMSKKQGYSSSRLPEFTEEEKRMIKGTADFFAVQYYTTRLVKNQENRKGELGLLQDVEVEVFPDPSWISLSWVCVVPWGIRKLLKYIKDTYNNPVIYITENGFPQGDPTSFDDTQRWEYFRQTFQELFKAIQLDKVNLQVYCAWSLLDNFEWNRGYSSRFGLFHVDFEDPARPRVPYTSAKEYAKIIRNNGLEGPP
From the text: as §1, §2

[7] = tested on: intracellular amastigotes of Leishmania donovani (amastigotes HU3); parameters: method as in doi:10.1039/C5RA02627J; conditions: cited from earlier work; for EC50: intracellular amastigotes of Leishmania donovani
[8] = tested on: T-47D, breast; parameters: method as in doi:10.1039/C5RA02627J; conditions: Figure 1; cited from earlier work
[9] = target: T3, green coffee bean α-galactosidase (Coffea arabica, UniProt Q42656); experiment: Glycosidase inhibition, green coffee bean α-galactosidase; type: biochemical, green coffee beans; conditions: 1 mM concentration
T3 construct: purchased
T3 sequence (Q42656 16-378): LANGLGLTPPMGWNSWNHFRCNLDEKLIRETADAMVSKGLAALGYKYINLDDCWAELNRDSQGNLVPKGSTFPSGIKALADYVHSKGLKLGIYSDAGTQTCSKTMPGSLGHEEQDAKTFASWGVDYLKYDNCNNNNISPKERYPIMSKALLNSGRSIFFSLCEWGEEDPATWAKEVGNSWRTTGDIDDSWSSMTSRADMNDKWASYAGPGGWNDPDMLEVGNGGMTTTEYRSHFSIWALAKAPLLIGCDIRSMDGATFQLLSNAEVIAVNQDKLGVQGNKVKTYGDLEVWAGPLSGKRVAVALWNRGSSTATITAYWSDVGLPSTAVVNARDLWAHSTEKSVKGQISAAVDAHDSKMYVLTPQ
From the text: as §1
Inhibition constant (Ki) values were determined by spectrophotometrically measuring the residual hydrolytic activities of the glycosidases against the respective o- (for β-galactosidase from E. coli) or p-nitrophenyl α- or β-D-glycopyranoside (for other glycosidases) in the presence of the iminosugars. […] The absorbance of the resulting mixture was determined at 405 nm. Approximate value of Ki was determined from the slope of Dixon plots using a fixed concentration of substrate (around the Km value for the different glycosidases) and various concentrations of inhibitor. Full Ki determinations and enzyme inhibition mode were determined from the slope of Lineweaver–Burk plots and double reciprocal analysis. […]

[10] = tested on: different human tumor cell lines; parameters: method as in doi:10.1039/C5RA02627J; conditions: read-out: GI50 against different human tumor cell lines; cited from earlier work
[11] = tested on: A549, lung; parameters: method as in doi:10.1039/C5RA02627J; conditions: Figure 1; cited from earlier work
[12] = tested on: MDA-MB-231, breast; parameters: method as in PMID 24124558, PMID 28145580; conditions: Figure 1; cited from earlier work
[13] = tested on: MCF-7, breast; parameters: method as in PMID 24124558, PMID 28145580; conditions: Figure 1; cited from earlier work

CCCCCCCCSCCC[C@@H]1[C@H](O)[C@@H](O)[C@@H](O)[C@H]2COC(=O)N12 [Compound 7, (1R)-1-[3-(Octylthio)propyl]-5N,6O-oxomethylidene-1-deoxygalactonojirimycin]
EC50 [1]: 10.6 ± 1.51 µM
EC50 [2]: 60.4 ± 2.8 µM
SI (EC50 MRC-5/EC50 parasite) [2]: 5.72
Ki, α-Glcase (Yeast Maltase) [3]: n.i.
GI50 [4]: 14 to 54 µM
EC50 [5]: 128 ± 5.71 µM
SI (EC50 THP-1/EC50 parasite) ([5]; Selectivity Index): 12.06
Ki, β-Glcase (Bovine Liver) [6]: n.i.

CCCCCCCCCCCCS[C@@H]1[C@H](O)[C@@H](O)[C@@H](O)[C@H]2COC(=O)N21 [DS-OGJ]
EC50 [7]: 15.5 µM
GI50 [8]: 18 µM

C=CC[C@@H]1[C@H](O)[C@@H](O)[C@@H](O)[C@H]2COC(=O)N12 [Compound 24, (1R)-1-Allyl-5N,6O-oxomethylidene-1-deoxygalactonojirimycin]
Ki, α-Glcase (Yeast Maltase) [3]: n.i.
Inhibition of green coffee bean α-galactosidase [9]: Neither epimeric OGJ sp^2-IGLs 7–12 nor α-allyl OGJ glycoside 24 behaved as inhibitors
Ki, β-Glcase (Bovine Liver) [6]: n.i.

CC(C)(C)OC(=O)NCCSCCC[C@@H]1[C@H](O)[C@@H](O)[C@@H](O)[C@H]2COC(=O)N12 [Compound 9, (1R)-1-[3-(N-tert-Butoxycarbonylaminoethylthio)propyl]-5N,6O-oxomethylidene-1-deoxygalactonojirimycin]
EC50 [1]: 13.4 ± 1.13 µM
EC50 [2]: 140 ± 17.3 µM
SI (EC50 MRC-5/EC50 parasite) [2]: 10.44
Ki, α-Glcase (Yeast Maltase) [3]: n.i.
GI50 (concentration to achieve 50% growth inhibition) ([4]; 48 h, tested 1 to 100 μM, only values below 100 μM significant): did not show any significant antiproliferative activity; also recorded: did not display significant antiproliferative activity
GI50 [4]: > 100 µM
EC50 [5]: > 200 µM
Ki, β-Glcase (Bovine Liver) [6]: n.i.

CCCCCCCCCCCCS[C@@H]1[C@H](O)[C@@H](O)[C@H](O)[C@H]2COC(=O)N21 [DS-ONJ]
Improvement of leishmanicidal potency relative to OS-ONJ [7]: up to 5 fold
EC50 [7]: 20.5 µM
GI50 [10]: < 20 µM
GI50 [11]: 16 µM

CCCCCCCC[C@@H]1[C@H](O)[C@@H](O)[C@H](O)[C@H]2COC(=O)N12 [OC-ONJ]
IC50 [12]: 44 µM
IC50 [13]: 26 µM

C=CC[C@@H]1[C@H](O)[C@@H](O)[C@H](O)[C@H]2COC(=O)N12 [Compound 15, (1R)-1-Allyl-5N,6O-oxomethylidene-1-deoxynojirimycin]
Ki [3]: 79 ± 8 µM
Ki, β-Glcase (Bovine Liver) [6]: n.i.

CCCCCCCCS[C@@H]1[C@H](O)[C@@H](O)[C@H](O)[C@H]2COC(=O)N21 [OS-ONJ]
EC50 [7]: 73.3 µM
IC50 [12]: 35 µM
IC50 [13]: 37 µM
